According to patent US5169858A, “Anti-tumor compositions containing the reactive product of benzaldehyde or salicylaldehyde with penicillamine and method of use thereof” (priority 1986, dated 1992):

Columns and labels:
tumor = settings: literature / other patent (Kochi et al.; U.S. Pat. No. 4,762,705); cited from earlier work
[1] = Terol et al publication; cited from earlier work
[2] = Terol et al publication; species and route not given; cited from earlier work
mouse melanoma cells [3] = format: in vivo, black mice
Method: (§1) Thirty-seven black mice were divided into two groups. Group I had 18 mice and was the control group. Group II had 19 mice and was the treated group. Each mouse was innoculated with 100,000 mouse melanoma cells subcutaneously. After the tumor was palpable (after about a week) the control group received saline orally. The treated group got 33 mg/kg of 5,5-dimethyl-2-phenyl-4-thiazolidine carboxylic acid every day by oral intubation. All of the control group died within an average of twenty-three days. The treated group started dying at day 50. The last mouse of the treated group died on day 70. The treated group died from day 50 on at the rate of about one mouse per day. […] Two mice in the treated group survived cured. The tumor disappeared in the two cured mice.
The same experiment was repeated with 20 control mice and 20 mice in the treated group, employing doses of 5,5-dimethyl-2-phenyl-4-thiazolidine carboxylic acid at 100 mg/kg. The treatment began about one day after innoculation. The control group died at the same time as the control group in the previous experiment. […] Five of the treated mice died between the 7th and 9th day. The reasons for these deaths are unclear, but it is presumed that they were asphyxiated by intubation.

mouse melanoma cells [4] = experiment: Subcutaneous mouse melanoma, treatment from palpable tumor, 33 mg/kg orally every day; format: in vivo, black mice; settings: 33 mg/kg every day by oral intubation
Method: as §1

[5] = Water solubility of free compound and copper chelates; format: physicochemical; settings: stated in the description, no test described

## O=Cc1ccccc1 [benzaldehyde]
tumor
  anti-tumor activity: has been shown to have anti-tumor activity

## CC(C)(S)[C@@H](N)C(=O)O [penicillamine, dimethylcysteine]
tumor
  anti-tumor activity: has anti-tumor activity

## CC1(C)SC(c2ccccc2)NC1C(=O)O (stereo not drawn) [5,5-dimethyl-2-phenyl-4-thiazolidine carboxylic acid]
[1]
  effect as a radio-protectant agent: absolutely no effect whatsoever
[2]
  LD50: 1200 mg/kg
Mouse melanoma cells [3]; 100 mg/kg, treatment began about one day after inoculation, 20 treated mice
  palpable tumors developed in treated group: no palpable tumors
Mouse melanoma cells [3]; mouse, in vivo
  day of death of the five treated mice: 7 to 9 days
  treated mice that died between the 7th and 9th day: Five
Mouse melanoma cells [4]
  tumor development compared with control group: developed slower than the tumors in the control group
Mouse melanoma cells [4]; 19 treated mice
  day of death of last mouse of treated group: 70 days
  mice in treated group that survived cured (tumor disappeared): Two
Mouse melanoma cells [4]; 19 treated mice, control died within an average of twenty-three days
  day on which treated group started dying: 50 days
[5]
  water solubility: water-soluble
